Series [1] relates to monolayer of MDCKII cells. Put plainly: Transwell apparent permeability (Papp) across a monolayer of MDCKII cells grown on a porous membrane. The series is classed as in vitro ADME, canine. Here is the method: (§1) The transport peptides of the present invention were identified by modifying peptide sequences and testing these peptides in a Transwell assay measuring in vitro transcellular transport. The Transwell assay consists of two chambers separated from each other by a permeable porous membrane. Cells, most commonly canine kidney epithelial MDCK cells or human intestinal epithelial Caco-2 cells, are grown on the membrane and represent a model biological barrier. The drug, or peptide of interest, is added to the input chamber and the concentration in the receiver chamber is measured after a period of time. The rate at which the drug or peptide permeates across the cells (and the porous membrane) is the rate of drug's concentration increase in the receiver chamber after a period of time. The rate can be calculated and expressed in terms of apparent permeability (Papp), which takes into account the input concentration, the rate of concentration increase in the receiver well, solution volume in the receiver well, and the area of the cell monolayer. Substances with low permeability generally have Papp values on the order of 10^−7 cm/s, and substances with high permeabilities generally have Papp values on the order of 10^−5 cm/s or higher. There are several published reports where the CPPs were investigated for their ability to deliver cargo transcellularly using a Transwell assay: Violini et al reported low permeabilities of 3.1×10^−8 cm/s and 7.4×10^−8 cm/s for TC-radiolabeled Tat 48-57 across Caco-2 and MDCK II cells, respectively.
(§2) The apparent permeabilities (Papp) of four compounds were determined across a monolayer of MDCKII cells, grown on a porous membrane. The four compounds were the following and are represented in FIGS. 2-3: 1) a transport peptide of the present invention, CL, attached to 5-Carboxyfluorescein (MW: 376.3) and designated as [5-FAM]CL peptide, 2) 5-Carboxyfluorescein attached to H3R8 ([5-FAM] H3R8 MW: 2,263.5 and the H3R8 peptide is shown in FIG. 4b) 3) 5-Carboxyfluorescein designated as 5-FAM and 4) Lucifer Yellow designated as LY (MW:457.25, Product Number L-453, Life Technologies). The following concentrations of [5-FAM] CL, [5-FAM] H3R8, 5-FAM, and LY compound were applied to the monolayer of MDCKII cells at approximately 0.2 μM, 0.4-0.9 μM, 4 μM, and 100 μM, respectively. The peptides and dyes were resuspended in HEPES- and glucose-supplemented 1×HBSS buffer. The permeability experiments were conducted for 1 hour at 37° C. Error bars represent standard error (SE). CL and H3R8 are conjugated to 5-FAM at the N-termini. H3R8 is based on oligoarginine CPPs that has been reported to deliver cargo intracellularly. LY is used to assess monolayer integrity (Papp≤10̂−6 cm/s verifies monolayer integrity). The permeability of LY is on the order of 10̂−7 cm/s and is thus consistent with literature values for a monolayer with good barrier properties. [5-FAM]

Assay in series [2]: as above
The series is classed as in vitro ADME, canine. The following applies: MDCK. Here is the method:
as §1, §2

The subject of series [3] is monolayer of MDCKII cells. The series is classed as cell-based, canine. An excerpt: The inventors identified cationic transport peptides that are capable of transcellular delivery of cargo across a monolayer of MDCKII cells grown on a porous membranes. One embodiment of the invention is a CL peptide, conjugated to a fluorescent dye 5-FAM (fluorescein), has a Papp value of (1.3±0.2)×10^−5 cm/s, which approaches the permeability rates of the fast-permeating molecules into the brain (Papp ≈10^−5 to 10^−4 cm/s). The CL peptide, conjugated to 5-FAM, enhanced 30-fold the rate of permeation of 5-FAM across the biological barrier. This is especially significant because MDCKII cells are virtually impermeable to 5-FAM (Papp=(4.1±0.6)×10^−7 cm/s) unless it is conjugated to the novel peptide. In addition, the CL peptide was able to deliver 5-FAM without compromising the junctional integrity of the model cell monolayer. Junctional integrity of the monolayer can be measured by transepithelial electrical resistance (TEER), which signifies resistance to the flow of ions across a cell monolayer. If the tight junctions between the cells are compromised, the TEER decreases.
FIG. 3 illustrates the % TEER change in the monolayer of MDCKII cells. Error bars represent SD with n=3 for all except LY, n=6. […] CL and [5-FAM] […] The data indicates the high permeability rates, observed for a transport peptide of the present invention, [5-FAM] […]

Where a SMILES comes first, the peptide text is derived from it. Where no end group is shown, it is not given here. The star is where a group is joined. 5FAM = O=C1OC2(c3ccc(O)cc3Oc3cc(O)ccc32)c2ccc(C(=O)*)cc21

For the compound `O=C(O)c1ccc2c(c1)C(=O)OC21c2ccc(O)cc2Oc2cc(O)ccc21` [5-FAM, 5-Carboxyfluorescein], the “apparent permeability (Papp)” value in series [1] (monolayer of MDCKII cells on porous membrane, 1 hour at 37° C, HEPES- and glucose-supplemented 1×HBSS) is reported as “(4.1±0.6)×10^−7 cm/s”.
Consider `CC(=O)N[C@@H](CCCCNC(=O)c1ccc2c(c1)C(=O)OC21c2ccc(O)cc2Oc2cc(O)ccc21)C(=O)NCC(=O)N[C@@H](CCCNC(=N)N)C(=O)N[C@@H](CC(C)C)C(=O)N[C@@H](CC(C)C)C(=O)N[C@@H](CCCNC(=N)N)C(=O)N[C@@H](CC(C)C)C(=O)N[C@@H](CC(C)C)C(=O)N[C@@H](CCCNC(=N)N)C(=O)N[C@@H](CCCNC(=N)N)C(=O)N[C@@H](CCCNC(=N)N)C(=O)N[C@@H](CCCNC(=N)N)C(=O)N[C@@H](CCCNC(=N)N)C(=O)N[C@@H](CCCNC(=N)N)C(=O)N[C@@H](CCCNC(=N)N)C(=O)N[C@@H](CCCNC(=N)N)C(N)=O` [[5-FAM] CL] (Ac-K(5FAM)GRLLRLLRRRRRRRR-NH2; N-terminus and C-terminus assumed), for which, in series [1] (MDCK), the “enhancement of the rate of permeation (Papp) relative to 5-FAM” value turned out to be 30 fold. In addition, in series [2], the Papp amounted to 13 ×10⁻⁶ cm/s. Also, the “% TEER change after the permeability experiment” value in series [3] is “did not result in a significant % TEER decrease”.
For HHHRRRRRRRR [H3R8], the “ability to deliver 5-FAM across a monolayer of MDCKII cells” value in series [1] (MDCK) is “not capable to deliver 5-FAM across a monolayer of MDCKII cells”.
With KGRLLRLLRRRRRRRR [CL peptide], in series [3], the “% TEER change after the permeability experiment” value was “did not significantly affect the TEER”.
With Lucifer Yellow [LY], the “apparent permeability (Papp)” value in series [1] (MDCK) was ~10̂−7 cm/s.

For orientation: Papp means a coefficient for how fast a substance crosses the barrier.

These data come from patent US20180193472A1, “TRANSPORT PEPTIDES FOR TRANSCELLULAR DELIVERY OF BIOLOGICAL AND THERAPEUTIC AGENTS” (priority 2017, published 2018).
